Reference: patent publication US20220273658A1, “SMALL MOLECULE LIVER X RECEPTOR MODULATORS AND USES THEREOF” (University of Houston System, priority 2019, published 2022)

Tests used:
PDAC cell lines [1] = test: tetrazolium salt reduction (WST) assay in PDAC cell lines; type: cell-based, human
Procedure: (§1) To determine the effects of LXR ligands on PDAC cell proliferation, cells were treated with synthetic LXR agonist GW3965 and live cells were quantified using trypan blue exclusion assays. […] FIGS. 8A, 8B, and 8C show dose-dependent decreases in cell proliferation in BxPC-3, Mia-PaCa-2, and PANC-1, respectively upon treatment with increasing GW3965 concentrations. […] Clonogenic assays were also employed to evaluate the effects of long-term LXR ligand treatment on cell proliferation and colony formation. […] These findings indicate that LXRs are involved in PDAC cell proliferation and targeting LXRs with ligands perturb their normal functions in cell proliferation.
(§2) The initial identification and subsequent characterization of the two novel LXR ligands and their derivative compounds was carried out in screens in three human pancreatic cancer cell and one non-transformed human pancreatic epithelial cell line in three or more replicate experiments for each cell line using the WST tetrazolium salt reduction assays.

HPNE cells = test: growth of non-transformed pancreatic epithelial cells (WST screen; FIG. 32D); type: cell-based, human; settings: WST screen
Procedure: as §2
(§3) The synthesis and characterization of KD-01-39, a derivative of 3A4, have not been described previously.

KPC tumor cells = test: growth of KPC tumor cells from mouse model of PDAC; type: cell-based
Source text: The effects of the ligands and derivatives on the growth of PDAC cells were further validated by cell counting and clonogenic assays.

human PDAC cell lines = test: cell viability response curves with increasing concentrations; type: cell-based
MCF-7 = test: expression of LXR target genes in breast cancer cells; type: cell-based; settings: MCF-7, ER-positive
Source text: (§4) The inhibitory effects of LXR ligands in breast cancer cells have been shown previously. […] The observed decreases in LXR protein levels were not affected by proteasome inhibitor MG132.

MDA-MB-231 = test: as above; type: cell-based; settings: MDA-MB-231, triple-negative
Source text: as §4

MCF-7 cells = test: breast cancer cell proliferation; type: cell-based
Source text: as §4

MDA-MB-231 cells = test: breast cancer cell proliferation; type: cell-based
Source text: as §4

LXR in MDA-MB-231 cells = test: western blot of LXR protein levels; type: cell-based
Source text: as §4

[2] = test system: LXR proteins in MCF-7 cells; test: western blot of LXR protein levels; type: cell-based
Source text: as §4

[3] = test system: LXR target genes SREBF1c, ABCA1, and ABCG1; test: expression of LXR target genes in pancreatic cancer cell lines; type: cell-based, human; settings: for basal expression of SREBF1c: all three pancreatic cancer cell lines; for expression of LXR target genes: three pancreatic cancer cell lines
Source text: To characterize the activity of the newly discovered ligands, the expression of LXR target genes SREBF1c, ABCA1, and ABCG1 was examined following treatment with vehicle, synthetic agonist GW3965, and Compounds 1E5 and 3A4. […] Basal expression of SREBF1c, the canonical LXR target gene involved in the regulation of glucose and lipid metabolism, was disrupted by the addition of novel LXR ligands, whereas their expression was induced following treatment with synthetic agonist GW3965 in all three pancreatic cancer cell lines tested, whereas the effects on ABCA1 and ABCG1 varied between the two novel ligands and across the cell lines.
(§5) To elucidate mechanisms of inverse agonism by the novel ligands, TR-FRET experiments were conducted to determine the effects of 1E5 and 3A4 on the recruitment of NR co-activators and co-repressors. […] In addition to their functions as inverse agonists, extended treatments with 1E5 and 3A4 also destabilized or decreased LXR proteins.

[4] = test system: LXR ligand-binding domain; test: TR-FRET assay of co-activator and co-repressor peptide recruitment; type: biochemical
Procedure: as §5, §3

LXR proteins = target: T1, LXR proteins (Homo sapiens, UniProt P55055); test: LXR protein levels after long-term treatment of pancreatic cancer cells; type: cell-based; settings: long-term treatments
T1 construct: expression of LXR proteins in different pancreatic cancer cell lines following long-term treatments; endogenous in cells; host or cells: pancreatic cancer cell lines (BxPC-3, MIA PaCa-2, PANC-1 named elsewhere)
T1 sequence (P55055 whole entry): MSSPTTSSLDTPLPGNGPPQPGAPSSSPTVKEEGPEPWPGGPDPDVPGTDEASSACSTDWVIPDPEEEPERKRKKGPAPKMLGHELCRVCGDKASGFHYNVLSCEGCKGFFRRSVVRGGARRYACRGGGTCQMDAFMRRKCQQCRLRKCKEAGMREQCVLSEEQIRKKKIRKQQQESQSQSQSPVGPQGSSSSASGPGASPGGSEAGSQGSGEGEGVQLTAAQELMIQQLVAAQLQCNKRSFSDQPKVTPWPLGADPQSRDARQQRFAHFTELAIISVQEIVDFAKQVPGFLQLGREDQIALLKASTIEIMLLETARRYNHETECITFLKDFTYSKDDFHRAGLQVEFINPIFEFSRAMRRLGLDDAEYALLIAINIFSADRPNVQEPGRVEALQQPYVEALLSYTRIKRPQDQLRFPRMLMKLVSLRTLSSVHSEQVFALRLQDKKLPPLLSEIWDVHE
Procedure: as §5

pancreatic cancer cells = test: metabolomic analysis using mass spectroscopy in pancreatic cancer cells; type: cell-based, human; settings: PDAC cells
Procedure: To further characterize the mechanisms of action of novel LXR modulators 1E5 and 3A4, metabolomic and transcriptomic analysis of pancreatic cancer cells were conducted in response to treatment. […] PDAC tumors have altered metabolism to support its growth and survival. Previous studies have reported that Kras upregulates the non-canonical use of glutamine to maintain NADPH/NADP+ ratio which in turn regulates redox homeostasis. This unconventional use of glutamine by PDAC cells fuel cancer cell proliferation and survival. Glutamine metabolism in PDAC has two unique functions: 1. Glutamine-derived Glutamate is used for glutathione (GSH) biosynthesis. 2. Glutamine facilitates generation of reducing equivalents in the form of NADPH. In PDAC mitochondria, glutamine is converted to glutamate by glutaminase enzyme (GLS1). This glutamine derived glutamate is conventionally converted to alpha-ketoglutarate by glutamate dehydrogenase (GLUD1) to fuel citric acid cycle. However, in PDAC cells glutamate is converted to aspartate in cytosol which is converted to malic acid and NADPH is produced during this process. This process is essential to maintain redox homeostasis in the tumor. However, this non-canonical use of glutamine is dispensable in non-malignant cells. Therefore, targeting GLS1 to decrease the bioavailability of glutamate to act as source of nitrogen and carbon for the synthesis of amino acids and nucleic acids is a viable strategy to target PDAC tumors. […] The effect of 1E5 is similar to BPTES, a potent GLS1 inhibitor.
TCA cycle intermediates act as anaplerotic substrate for gluconeogenesis and lipogenesis. […] GOT2 converts glutamine-derived glutamate to alpha-KG. During this process oxaloacetate is converted to aspartate which is required to maintain redox homeostasis. Studies have shown that inhibition of GOT2 in PDAC promotes senescence.
(§6) To determine if 1E5 and 3A4 can induce apoptosis, PDAC cells were treated with the LXR ligands and subjected to pro-apoptotic caspase cleavage analysis. […] Metabolomic profiling following treatments with the two ligands indicated the activation of two distinct cell death mechanisms. Ferroptosis is a non-apoptotic form of cell death which is characterized by accumulation of lipid peroxides by loss of glutathione peroxidase 4 (GPX4) activity. It can also be induced by accumulation of intracellular iron and depletion of reduced glutathione (GSH). GPX4 is an anti-oxidant enzyme involved in conversion of PUFA peroxides to PUFA alcohols. GSH is a critical cofactor of GPX4 and acts as a reducing agent to reduce the lipid peroxides. Therefore, direct inhibition of GPX4 activity or reduction in GSH levels trigger ferroptosis. The second mechanism of inducing ferroptosis is accumulation of polyunsaturated fatty acids (PUFAs) in cells. Studies have shown that PUFAs are the most susceptible lipids to peroxidation.
Expression profiles of ferroptosis genes in RNAseq data following 1E5 treatment were also consistent with its pro-ferroptotic actions. […] Polyamines are amino-acid derived polycationic alkylamines that are required for the growth of cells. SAT1 catalyzes the acetylation of spermidine and spermine to form N-acetylspermidine and N-acetylspermine respectively. […] SAT1 induces ferroptosis by upregulating the peroxidation of PUFA arachidonic acid. Ceramides are sphingolipids consisting of sphingosine and fatty acid acyl chain. Cellular stress leads to upregulation of ceramide synthesis which mediate caspase-dependent apoptosis. Accumulation of ceramides/hexosylceramides in the mitochondria leads to the formation of channel like structures in the mitochondrial outer membrane which increases the permeability of pro-apoptotic proteins such as cytochrome c. ER stress is also known to activate de-novo synthesis of ceramides and induce apoptosis by increasing the flow of Ca ions and upregulating the unfolded protein stress response. […]

PDAC cells = test: pro-apoptotic caspase cleavage analysis; type: cell-based, human
Procedure: as §6
Accumulation of C18 ceramides in the mitochondria leads to the recruitment of auto phagosomes in mitochondria and induces LC3-ceramide dependent lethal mitophagy. […] Darkened circles indicate increases and the size of the circle corresponds to the significance of changes.

LXR-LBD = test: differential scanning fluorimetry; type: binding
Source text: as §3

[5] = test system: BxPC-3, Mia-PaCa-2, and PANC-1; test: cell proliferation, live cells quantified by trypan blue exclusion; type: cell-based, human; settings: increasing GW3965 concentrations; all three cell lines
Procedure: as §1

PDAC cell lines [6] = test: MTS assay of overall cell metabolic rate; type: cell-based, human; settings: increasing concentrations of GW3965
PDAC cell lines [7] = test: clonogenic assay, colony formation; type: cell-based, human; settings: long-term treatment, each cell line
Procedure: as §1

BxPC-3-luc2 cells = test: orthotopic xenograft mouse model of pancreatic cancer; type: in vivo
Source text: Data from studies using cultured cancer cell lines indicate that LXR agonists have anti-proliferative effects on PDAC cells by disrupting cell cycle progression and expression of key regulatory proteins and growth pathways. To determine the effects of ligands in vivo using a live imaging system, BxPC-3 cells engineered with […] firefly luciferase gene (BxPC-3-luc2) were obtained from a commercial source (Perkin Elmer) and then validated for luciferase expression and response to GW3965 treatment in culture. […] NCr athymic nude mice (n=5 per treatment group) were orthotopically injected with BxPC-3-luc2 cells and then gavaged daily with GW3965 dissolved in 0.5% methylcellulose or vehicle only. Animals were anesthetized, injected with luciferin, and imaged weekly to monitor and quantify tumor growth. […] Experiments were terminated after two weeks due to the morbidity associated with the tumor burden in test animals. […] Statistically significant differences in additive effects as compared to single compound treatments are denoted with asterisks.

[8] = test system: myeloid-derived suppressor cells (MDSCs); settings: in vivo; cited from earlier work
[9] = pre-clinical testing; cited from earlier work

SMILES: COc1cc(OC)cc(C(=O)N2CCN(c3ccccc3C)CC2)c1 [Compound 3A4, 1-(3,5-dimethoxybenzoyl)-4-(2-methylphenyl)piperazine]
- human pancreatic cancer cells growth (PDAC cell lines [1]; WST screen, three human pancreatic cancer cell lines): effective in inhibiting human pancreatic cancer cells growth
- activity against non-transformed HPNE cells (HPNE cells): little activity
- growth of KPC tumor cells (KPC tumor cells): blocked the growth
- potency in response curves compared to GW3965 (human PDAC cell lines): more potent activity as compared to GW3965
- expression of LXR target genes (MCF-7): generally down-regulated
- expression of LXR target genes (MDA-MB-231): generally down-regulated
- proliferation of MCF-7 cells (MCF-7 cells): inhibited the proliferation
- proliferation of MDA-MB-231 cells (MDA-MB-231 cells): inhibited
- LXR protein levels (degradation) (LXR in MDA-MB-231 cells): only 1E5 degraded LXR
- LXR protein levels (degradation) [2]: act as degraders of LXR proteins
- basal expression of SREBF1c [3]: disrupted
- expression of FASN, SCD, and ACC ([3]; pancreatic cancer cells): decreased the expression
- expression of LXR target genes [3]: reducing the expression of LXR target genes
- co-activator peptide binding to LXR ligand-binding domain ([4]; co-activator (D22) peptide): did not affect co-activator peptide binding
- binding of NCOR and SMRT co-repressor peptides ([4]; co-repressor (NCOR and SMRT-ID2) peptides): increased the binding
- LXR protein levels (LXR proteins): decreased LXR protein levels
- levels of C18 and C16 ceramides and hexosylceramides (pancreatic cancer cells): significantly upregulates
- pro-apoptotic caspase cleavage (PDAC cells): induced pro-apoptotic caspase cleavage
- apoptosis (PDAC cells; PDAC cells): induces caspase-dependent apoptosis
- LXR-LBD structure and dye dissociation with increasing temperature (LXR-LBD): disrupted the LBD structure

SMILES: O=C(O)Cc1cccc(OCCCN(Cc2cccc(C(F)(F)F)c2Cl)CC(c2ccccc2)c2ccccc2)c1 [GW3965]
- cell proliferation [5]: significantly inhibited
- growth of PDAC cell lines (PDAC cell lines [1]; GW3965, WST assay): suppressed the growth of PDAC cell lines in a dose-dependent manner
- overall metabolism (MTS) (PDAC cell lines [6]): dose-dependent drop in overall metabolism
- colony formation (PDAC cell lines [7]): strongly inhibited colony formation
- tumor growth (luciferase signal) (BxPC-3-luc2 cells; 40 mg/kg and 80 mg/kg, daily gavage, one and two weeks): reduced tumor growth
- tumor size, post-mortem examination (BxPC-3-luc2 cells; control vs treated animals): significant differences in tumor size
- bioavailability following ingestion (BxPC-3-luc2 cells; daily gavage): confirmed the bioavailability
- toxicity following ingestion (BxPC-3-luc2 cells; mouse, in vivo): low toxicity
- basal expression of SREBF1c [3]: induced
- expression of LXR target genes [3]: increased target gene expression
- anti-tumor effects of PD-1 inhibitor immunotherapy [8]: enhanced the anti-tumor effects of PD-1 inhibitor immunotherapy
- recruitment and apoptosis of immunosuppressive MDSCs [8]: blocked the recruitment and increased apoptosis
- circulating and liver triglyceride levels [9]: increased circulating and liver triglyceride levels
